The source of these data is ChEMBL document CHEMBL1132867, “A rationally designed anticancer drug targeting a unique binding cavity of tubulin” (Bioorg Med Chem Lett, 2000).

Assay [1] deals with MDA-MB-231. Put plainly: Anti-proliferative activity of compound against human breast cancer MDA-MB-231 by standard MTT assay. The format is functional, cell-based. Background: Formazan colour is commonly taken as a measure of viable cells.
Assay [2] has as its system PC-3. Put plainly: Anti-proliferative activity of compound against human prostate cancer PC-3 by standard MTT assay. Format: functional, cell-based. The settings on record: PC-3, Prostate gland.
Assay [3] has as its system U-87 MG. The assay is described as follows: Anti-proliferative activity of compound against human glioblastoma tumor cell line U87 by standard MTT assay. The format is functional, cell-based, U-87MG ATCC.
Assay [4] concerns SQ20B. Put plainly: Anti-proliferative activity of compound against human head/neck cancer SQ20B by standard MTT assay. Format: functional, cell-based.
For assay [5], the system named is NALM-6. Put plainly: Anti-proliferative activity of compound against human leukemia NALM-6 by standard MTT assay. The format is functional, cell-based.

The structures appear in SMILES notation.

Take `OC[C@H]1CC[C@H]([C@@H](O)CO)O1` [WHI-259]: the half-inhibitory concentration (IC50) in assay [1], in assay [2], in assay [3], in assay [4] and in assay [5] was > 250 µM throughout.

As to `C[C@@H](O)[C@H]1CC[C@H](CO)O1` [WHI-260], the IC50 in assay [1], in assay [2], in assay [3], in assay [4] and in assay [5] was > 250 µM throughout.

For `CCCCCCCCCCCC[C@@H](O)[C@H]1CC[C@H](CO)O1` [WHI-261], the IC50 in assay [1] stood at 7 µM; in assay [2] it was 171 µM; in assay [3], 107 µM; in assay [4], 140 µM; in assay [5] it was 49 µM.

For `O=S(=O)(CC[C@@H](O)[C@H]1CC[C@H](COCc2ccccc2)O1)c1ccccc1` [WHI-262], the IC50 in assay [1], in assay [2], in assay [3], in assay [4] and in assay [5] was > 250 µM throughout.

As a reminder, the IC50 is the concentration that inhibits the measured activity by half. Lower therefore signals greater potency.
